# Assay results published in ChEMBL document CHEMBL2146470, “Novel Carboxamide-Based Allosteric MEK Inhibitors: Discovery and Optimization Efforts toward XL518 (GDC-0973)” (ACS Med Chem Lett, 2012).
# How the values were obtained:
# [1] = Clearance in Sprague-Dawley rat at 5 mg/kg, po; assay type: ADME, organism-based; design: dose 5 mg/kg, route oral; conditions: in vivo
# [2] = Apparent permeability across MDCK cells; assay type: ADME, cell-based, Canis lupus familiaris; conditions: dog
# [3] = Half life in Sprague-Dawley rat at 5 mg/kg, po; assay type: ADME, organism-based; design: dose 5 mg/kg, route oral; conditions: in vivo
# [4] = Oral bioavailability in Sprague-Dawley rat at 5 mg/kg; assay type: ADME, organism-based; conditions: in vivo
# [5] = system: Rattus norvegicus; experiment: Dose normalised AUC (0 to t) in Sprague-Dawley rat at 5 mg/kg, po; assay type: ADME, organism-based; design: dose 5 mg/kg, route oral; conditions: in vivo
# [6] = Drug metabolism in human liver microsomes at 15 uM after 30 mins; assay type: ADME, Microsome; conditions: read-out: Drug metabolism
# [7] = Drug metabolism in rat liver microsomes at 15 uM after 30 mins; assay type: ADME, Microsome; conditions: read-out: Drug metabolism
# [8] = molecular target: Dual specificity mitogen-activated protein kinase kinase; MEK1/2 (Homo sapiens, UniProt P36507+Q02750)
# Description: Inhibition of MEK-mediated ERK T202/Y204 phosphorylation in human MDA-MB-231T cells after 1 hr by immunoblotting
# [9] = molecular target: Dual specificity mitogen-activated protein kinase kinase 1 (Homo sapiens, UniProt Q02750)
# Dual specificity mitogen-activated protein kinase kinase 1, sequence (Q02750 whole entry): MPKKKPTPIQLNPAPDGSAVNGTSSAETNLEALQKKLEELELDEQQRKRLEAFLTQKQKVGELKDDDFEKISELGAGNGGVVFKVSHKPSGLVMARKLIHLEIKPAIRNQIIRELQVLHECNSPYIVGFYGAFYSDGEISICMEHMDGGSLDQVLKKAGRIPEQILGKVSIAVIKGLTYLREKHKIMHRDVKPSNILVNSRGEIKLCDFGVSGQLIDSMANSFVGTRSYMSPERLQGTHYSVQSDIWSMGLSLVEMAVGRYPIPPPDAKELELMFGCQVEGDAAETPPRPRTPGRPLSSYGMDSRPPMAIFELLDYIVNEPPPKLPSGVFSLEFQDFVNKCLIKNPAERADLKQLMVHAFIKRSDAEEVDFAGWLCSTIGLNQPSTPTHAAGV
# Description: Inhibition of MEK1-mediated ERK2 T202/Y204 phosphorylation using biotinylated MBP as substrate preincubated for 30 mins measured after 100 mins by cRAF-MEK-ERK enzyme coupled assay
# [10] = Drug uptake in tumor of nude NCr mouse xenografted with human MDA-MB-231T cells at 100 mg/kg, po measured after 24 hrs by LC-MS analysis; assay type: ADME, organism-based, Neoplasm; design: dose 100 mg/kg, route oral; conditions: read-out: Drug uptake
# [11] = system: Rattus norvegicus; experiment: Toxicity against po dosed rat assessed as adverse effect administered as subchronical dose; assay type: organism-based; conditions: in vivo
# [12] = Antitumor activity against human MDA-MB-231T cells xenografted in athymic nude NCr mouse assessed as tumor growth inhibition at 1 mg/kg administered qd for 14 days relative to control; assay type: functional; conditions: 336 h, read-out: GI
# [13] = Drug uptake in brain of nude NCr mouse xenografted with human MDA-MB-231T cells at 100 mg/kg, po measured after 24 hrs by LC-MS analysis; assay type: ADME, organism-based; design: dose 100 mg/kg, route oral; conditions: read-out: Drug uptake
# [14] = Drug uptake in brain of nude NCr mouse xenografted with human MDA-MB-231T cells at 20 mg/kg, po measured after 24 hrs by LC-MS analysis; assay type: ADME, organism-based; design: dose 20 mg/kg, route oral; conditions: read-out: Drug uptake
# [15] = system: Mus musculus; experiment: Inhibition of MEK-mediated ERK T202/Y204 phosphorylation in nude NCr mouse brain xenografted with human MDA-MB-231T cells at 20 mg/kg, po after 24 hrs by immunoblotting; assay type: functional
# [16] = Drug uptake in tumor of nude NCr mouse xenografted with human MDA-MB-231T cells at 20 mg/kg, po measured after 24 hrs by LC-MS analysis; assay type: ADME, organism-based, Neoplasm; design: dose 20 mg/kg, route oral; conditions: read-out: Drug uptake
# [17] = Plasma concentration in nude NCr mouse xenografted with human MDA-MB-231T cells at 20 mg/kg, po measured after 24 hrs by LC-MS analysis; assay type: ADME, organism-based; design: dose 20 mg/kg, route oral
# [18] = Plasma concentration in nude NCr mouse xenografted with human MDA-MB-231T cells at 10 mg/kg, po measured after 24 hrs by LC-MS analysis; assay type: ADME, organism-based; design: dose 10 mg/kg, route oral
# [19] = Plasma concentration in athymic nude NCr mouse xenografted with human MDA-MB-231T cells at 3 mg/kg administered qd for 14 days; assay type: ADME, organism-based; design: dose 3 mg/kg
# [20] = Plasma concentration in nude NCr mouse xenografted with human MDA-MB-231T cells at 100 mg/kg, po measured after 24 hrs by LC-MS analysis; assay type: ADME, organism-based; design: dose 100 mg/kg, route oral
# [21] = Drug uptake in brain of nude NCr mouse xenografted with human MDA-MB-231T cells at 10 mg/kg, po measured after 24 hrs by LC-MS analysis; assay type: ADME, organism-based; design: dose 10 mg/kg, route oral; conditions: read-out: Drug uptake
# [22] = system: Salmonella typhimurium; experiment: Mutagenic activity in Salmonella typhimurium by Ames test; assay type: toxicity, organism-based; conditions: salmonella enterica subsp. enterica serovar typhimurium
# [23] = Drug uptake in tumor of nude NCr mouse xenografted with human MDA-MB-231T cells at 5 mg/kg, po measured after 24 hrs by LC-MS analysis; assay type: ADME, organism-based; design: dose 5 mg/kg, route oral; conditions: read-out: Drug uptake
# [24] = system: Mus musculus; experiment: Inhibition of MEK-mediated ERK T202/Y204 phosphorylation in nude NCr mouse brain xenografted with human MDA-MB-231T cells at 100 mg/kg, po after 24 hrs by immunoblotting; assay type: functional
# [25] = system: Mus musculus; experiment: Inhibition of MEK-mediated ERK T202/Y204 phosphorylation in human MDA-MB-231T cells xenografted in nude NCr mouse tumor at 100 mg/kg, po after 24 hrs by immunoblotting; assay type: functional
# [26] = system: Mus musculus; experiment: Inhibition of MEK-mediated ERK T202/Y204 phosphorylation in human MDA-MB-231T cells xenografted in nude NCr mouse tumor at 10 mg/kg, po after 24 hrs by immunoblotting; assay type: functional
# [27] = Drug uptake in tumor of nude NCr mouse xenografted with human MDA-MB-231T cells at 10 mg/kg, po measured after 24 hrs by LC-MS analysis; assay type: ADME, organism-based, Neoplasm; design: dose 10 mg/kg, route oral; conditions: read-out: Drug uptake
# [28] = Plasma concentration in nude NCr mouse xenografted with human MDA-MB-231T cells at 5 mg/kg, po measured after 24 hrs by LC-MS analysis; assay type: ADME, organism-based; design: dose 5 mg/kg, route oral
# [29] = Protein binding in serum; assay type: ADME, cell-free
# [30] = system: Mus musculus; experiment: Inhibition of MEK-mediated ERK T202/Y204 phosphorylation in nude NCr mouse brain xenografted with human MDA-MB-231T cells at 10 mg/kg, po after 24 hrs by immunoblotting; assay type: functional
# [31] = Antitumor activity against human MDA-MB-231T cells xenografted in athymic nude NCr mouse assessed as tumor growth inhibition at 3 mg/kg administered qd for 14 days relative to control; assay type: functional; conditions: 336 h, read-out: GI
# [32] = system: Mus musculus; experiment: Inhibition of MEK-mediated ERK T202/Y204 phosphorylation in human MDA-MB-231T cells xenografted in po dosed nude NCr mouse tumor after 24 hrs by immunoblotting; assay type: functional
# [33] = system: Mus musculus; experiment: Inhibition of MEK-mediated ERK T202/Y204 phosphorylation in nude NCr mouse brain xenografted with human MDA-MB-231T cells at 5 mg/kg, po after 24 hrs by immunoblotting; assay type: functional
# [34] = system: Mus musculus; experiment: Inhibition of MEK-mediated ERK T202/Y204 phosphorylation in human MDA-MB-231T cells xenografted in nude NCr mouse tumor at 20 mg/kg, po after 24 hrs by immunoblotting; assay type: functional
# [35] = system: Mus musculus; experiment: Inhibition of MEK-mediated ERK T202/Y204 phosphorylation in human MDA-MB-231T cells xenografted in nude NCr mouse tumor at 5 mg/kg, po after 24 hrs by immunoblotting; assay type: functional
# [36] = Drug uptake in brain of nude NCr mouse xenografted with human MDA-MB-231T cells at 5 mg/kg, po measured after 24 hrs by LC-MS analysis; assay type: ADME, organism-based; design: dose 5 mg/kg, route oral; conditions: read-out: Drug uptake
# [37] = system: Brain; experiment: Drug metabolism in brain of nude NCr mouse xenografted with human MDA-MB-231T cells assessed as 3,4-difluoro-2-(2-fluoro-4-iodophenylamino)benzoic acid level at 100 mg/kg, po measured after 24 hrs by LC-MS analysis; assay type: ADME, organism-based; design: dose 100 mg/kg, route oral; conditions: in vivo
smiles,measurement,setting,value
CC(C)NCC1(O)CN(C(=O)c2ccc(F)c(F)c2Nc2ccc(I)cc2F)C1,CL/F,[1],99.3 mL/min/kg
same,Papp,[2],21 ×10⁻⁶ cm/s
same,half-life,[3],4.9 h
same,bioavailability,[4],86%
same,AUCt/dose,[5],0.25 µM·h/mg/kg
same,"metabolised at 0.5 h, 15 µM",[6],35.8%
same,"metabolised at 0.5 h, 15 µM",[7],40.5%
CC(C)(C)NCC1(O)CN(C(=O)c2ccc(F)c(F)c2Nc2ccc(I)cc2F)C1,IC50,[8],11 nM
same,IC50,[9],4.8 nM
CN(C)CC1(O)CN(C(=O)c2ccc(F)c(F)c2Nc2ccc(I)cc2F)C1,IC50,[8],14 nM
same,IC50,[9],5.1 nM
O=C(c1ccc(F)c(F)c1Nc1ccc(I)cc1F)N1CC(O)(CN2CCCC2)C1,IC50,[8],50 nM
same,IC50,[9],7.6 nM
O=C(c1ccc(F)c(F)c1Nc1ccc(I)cc1F)N1CC(O)(CN2CCOCC2)C1,IC50,[8],331 nM
same,IC50,[9],1710 nM
C[C@H](N)C1(O)CN(C(=O)c2ccc(F)c(F)c2Nc2ccc(I)cc2F)C1,IC50,[8],46 nM
same,CL/F,[1],13.3 mL/min/kg
same,Papp,[2],9.9 ×10⁻⁶ cm/s
same,half-life,[3],11.4 h
same,bioavailability,[4],58%
same,AUCt/dose,[5],1.03 µM·h/mg/kg
same,IC50,[9],5.2 nM
same,"metabolised at 0.5 h, 15 µM",[6],2.6%
same,"metabolised at 0.5 h, 15 µM",[7],-4.5%
C[C@@H](N)C1(O)CN(C(=O)c2ccc(F)c(F)c2Nc2ccc(I)cc2F)C1,IC50,[8],164 nM
same,IC50,[9],16 nM
O=C(c1ccc(F)c(F)c1Nc1ccc(I)cc1F)N1CC(O)([C@@H]2CCCCN2)C1 [COBIMETINIB],IC50,[8],0.2 nM
same,concentration at 24 h,[10],22800 nM
same,Activity,[11],Non-toxic
same,inhibition in vivo at 1 mg/kg,[12],60%
same,concentration at 24 h,[13],220 nM
same,concentration at 24 h,[14],< 4 nM
same,inhibition in vivo at 20 mg/kg,[15],2%
same,concentration at 24 h,[16],3590 nM
same,CL/F,[1],59.4 mL/min/kg
same,concentration at 24 h,[17],100 nM
same,concentration at 24 h,[18],100 nM
same,Papp,[2],10.5 ×10⁻⁶ cm/s
same,half-life,[3],6.1 h
same,bioavailability,[4],77%
same,concentration at 336 h,[19],130 nM
same,concentration at 24 h,[20],120 nM
same,AUCt/dose,[5],0.35 µM·h/mg/kg
same,concentration at 24 h,[21],< 4 nM
same,Activity,[22],Non-toxic
same,concentration at 24 h,[23],530 nM
same,inhibition in vivo at 100 mg/kg,[24],0%
same,IC50,[9],0.9 nM
same,"metabolised at 0.5 h, 15 µM",[6],13.8%
same,inhibition in vivo at 100 mg/kg,[25],87%
same,inhibition in vivo at 10 mg/kg,[26],45%
same,concentration at 24 h,[27],1990 nM
same,"metabolised at 0.5 h, 15 µM",[7],22.4%
same,concentration at 24 h,[28],< 4 nM
same,Activity,[29],94%
same,inhibition in vivo at 10 mg/kg,[30],7%
same,inhibition in vivo at 3 mg/kg,[31],93%
same,ED90,[32],39.7 mg/kg
same,inhibition in vivo at 5 mg/kg,[33],8%
same,inhibition in vivo at 20 mg/kg,[34],75%
same,inhibition in vivo at 5 mg/kg,[35],16%
same,concentration at 24 h,[36],< 4 nM
same,Drug uptake,[37],Not Active
